Laboratory results: patent US20070117743A1, “New antitumoral compounds” (priority 2003, published 2007)
Where a SMILES comes first, the peptide text is derived from it. Bridges are numbered along the chain shown (N, C = ends). [ ]: non-standard residue; d: D form. The star is where a group is joined. d(aIle) = CC[C@H](C)[C@@H](N)C(=O)O; d(aThr) = C[C@@H](O)[C@@H](N)C(=O)O; Hexanoyl(5-Me) = CC(C)CCCC(=O)*; Orn = NCCC[C@H](N)C(=O)O; Dhb = C/C=C(\N)C(=O)O

Key:
Assay type in all cases: cell-based, human
A-549 = assay: SRB colorimetric assay of cell growth and viability, A-549; conditions: 48 hours exposure; for GI50: read-out: GI50 A-549; for CC50: read-out: LC50 A-549
LNCaP = assay: SRB colorimetric assay of cell growth and viability, LNCaP; conditions: 48 hours exposure; for GI50: read-out: GI50 LN-caP; for CC50: read-out: LC50 LN-caP
K-562 = assay: SRB colorimetric assay of cell growth and viability, K-562; conditions: 48 hours exposure; for CC50: read-out: LC50 K-562
SK-MEL-28 = assay: SRB colorimetric assay of cell growth and viability, SK-MEL-28; conditions: 48 hours exposure; for CC50: read-out: LC50 MEL-28
DU-145 = assay: SRB colorimetric assay of cell growth and viability, DU-145; conditions: 48 hours exposure
IGROV-ET = assay: SRB colorimetric assay of cell growth and viability, IGROV-ET; conditions: 48 hours exposure; for CC50: read-out: LC50 IGROV-ET
IGROV-1 = assay: SRB colorimetric assay of cell growth and viability, IGROV-1; conditions: 48 hours exposure
HeLa = assay: SRB colorimetric assay of cell growth and viability, HeLa; conditions: 48 hours exposure; for CC50: read-out: LC50 HELA
PANC-1 = assay: SRB colorimetric assay of cell growth and viability, PANC-1; conditions: 48 hours exposure; for CC50: read-out: LC50 PANC-1
SK-BR-3 = assay: SRB colorimetric assay of cell growth and viability, SK-BR-3; conditions: 48 hours exposure
LoVo = assay: SRB colorimetric assay of cell growth and viability, LoVo; conditions: 48 hours exposure; for CC50: read-out: LC50 LOVO
HT-29 = assay: SRB colorimetric assay of cell growth and viability, HT-29; conditions: 48 hours exposure; for GI50: read-out: GI50 HT-29; for CC50: read-out: LC50 HT-29
LoVo-Dox = assay: SRB colorimetric assay of cell growth and viability, LoVo-Dox; conditions: 48 hours exposure; for CC50: read-out: LC50 LOVO-DOX
Summary of the method: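 Absorbance at 490 nm of Tris-solubilized sulforhodamine B gives the read-out after cells are fixed with cold 50% TCA for 60 min at 4° C. Compound exposure lasts 48 hours over 10 to 10^−8 μg/mL. Growth inhibition, total growth inhibition and lethal concentration are calculated from triplicate wells.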

HeLa-APL = assay: SRB colorimetric assay of cell growth and viability, HeLa-APL; conditions: 48 hours exposure; for CC50: read-out: LC50 HELA-APL

C/C=C1\NC(=O)[C@H](Cc2ccccc2)NC(=O)[C@@H](C(C)C)NC(=O)[C@@H]([C@@H](C)CC)NC(=O)[C@H](NC(=O)[C@H](NC(=O)[C@H](CCCN)NC(=O)[C@H]2CCCN2C(=O)[C@H](NC(=O)[C@@H](NC(=O)[C@@H](NC(=O)[C@H](NC(=O)CCCC(C)C)C(C)C)[C@@H](C)O)[C@@H](C)O)C(C)C)[C@@H](C)CC)[C@@H](C)OC(=O)[C@H](C(C)C)NC1=O [Compound 50, [Thr^11]-KF] ({Hexanoyl(5-Me)}-[dV]TT[dV][dP][Orn][d(aIle)][d(aThr)][d(aIle)][dV]F[Dhb]V; ester 8-C)
TGI A-549 (A-549): 6.76E−06 Molar | GI50 (A-549): ≥ 6.76 µM | CC50 (A-549): ≥ 6.76 µM | TGI LN-caP (LNCaP): 6.76E−06 Molar | GI50 (LNCaP): ≥ 6.76 µM | CC50 (LNCaP): ≥ 6.76 µM | GI50 (K-562): ≥ 6.76 µM | TGI K-562 (K-562): 6.76E−06 Molar | CC50 (K-562): ≥ 6.76 µM | GI50 (SK-MEL-28): ≥ 6.76 µM | TGI MEL-28 (SK-MEL-28): 6.76E−06 Molar | CC50 (SK-MEL-28): ≥ 6.76 µM | GI50 (DU-145): ≥ 6.7 µM | LC50 (concentration causing 50% net cell kill) (DU-145): ≥ 6.76 µM | TGI DU-145 (DU-145): 6.76E−06 Molar | GI50 (IGROV-ET): 2.7 µM | TGI IGROV-ET (IGROV-ET): 6.76E−06 Molar | CC50 (IGROV-ET): ≥ 6.76 µM | GI50 (IGROV-1): 3.76 µM | LC50 (concentration causing 50% net cell killing) (IGROV-1): ≥ 6.76 µM | TGI IGROV (IGROV-1): 6.76E−06 Molar | GI50 (HeLa): 5.58 µM | TGI HELA (HeLa): 6.76E−06 Molar | CC50 (HeLa): ≥ 6.76 µM | GI50 (PANC-1): 4.16 µM | TGI PANC-1 (PANC-1): 6.76E−06 Molar | CC50 (PANC-1): ≥ 6.76 µM | GI50 (SK-BR-3): 0.899 µM | LC50 (SK-BR-3): ≥ 6.76 µM | TGI SK-BR-3 (SK-BR-3): 2.58E−06 Molar | GI50 (LoVo): 1.21 µM | TGI LOVO (LoVo): 2.80E−06 Molar | CC50 (LoVo): 6.47 µM | TGI HT-29 (HT-29): 6.76E−06 Molar | GI50 (HT-29): 3.76 µM | CC50 (HT-29): ≥ 6.76 µM | GI50 (LoVo-Dox): 1.27 µM | TGI LOVO-DOX (LoVo-Dox): 2.54E−06 Molar | CC50 (LoVo-Dox): 5.1 µM | GI50 (HeLa-APL): ≥ 6.76 µM | TGI HELA-APL (HeLa-APL): 6.76E−06 Molar | CC50 (HeLa-APL): ≥ 6.76 µM

C/C=C1\NC(=O)[C@H](Cc2ccccc2)NC(=O)[C@@H](C(C)C)NC(=O)[C@@H]([C@@H](C)CC)NC(=O)[C@H](NC(=O)[C@H](NC(=O)[C@H](CCCN)NC(=O)[C@H]2CCCN2C(=O)[C@H](NC(=O)[C@@H](NC(=O)[C@@H](NC(=O)[C@H](NC(=O)CCCC(C)C)C(C)C)C(C)C)C(C)C)C(C)C)[C@@H](C)CC)[C@@H](C)OC(=O)[C@H](C(C)C)NC1=O [Compound 6, [Val^12]-KF] ({Hexanoyl(5-Me)}-[dV]VV[dV][dP][Orn][d(aIle)][d(aThr)][d(aIle)][dV]F[Dhb]V; ester 8-C)
TGI A-549 (A-549): 8.54E−07 Molar | GI50 (A-549): 0.257 µM | CC50 (A-549): 2.36 µM | TGI LN-caP (LNCaP): 1.00E−06 Molar | GI50 (LNCaP): 0.313 µM | CC50 (LNCaP): 2.78 µM | GI50 (K-562): 0.661 µM | TGI K-562 (K-562): 1.44E−06 Molar | CC50 (K-562): 3.07 µM | GI50 (SK-MEL-28): 0.175 µM | TGI MEL-28 (SK-MEL-28): 2.94E−07 Molar | CC50 (SK-MEL-28): 0.492 µM | GI50 (DU-145): 0.165 µM | LC50 (concentration causing 50% net cell kill) (DU-145): 0.523 µM | TGI DU-145 (DU-145): 2.94E−07 Molar | GI50 (IGROV-ET): 0.154 µM | TGI IGROV-ET (IGROV-ET): 2.91E−07 Molar | CC50 (IGROV-ET): 0.549 µM | GI50 (IGROV-1): 0.15 µM | LC50 (concentration causing 50% net cell killing) (IGROV-1): 0.598 µM | TGI IGROV (IGROV-1): 2.99E−07 Molar | GI50 (HeLa): 0.144 µM | TGI HELA (HeLa): 2.63E−07 Molar | CC50 (HeLa): 0.48 µM | GI50 (PANC-1): 1.02 µM | TGI PANC-1 (PANC-1): 1.96E−06 Molar | CC50 (PANC-1): 3.8 µM | GI50 (SK-BR-3): 0.102 µM | LC50 (SK-BR-3): 0.482 µM | TGI SK-BR-3 (SK-BR-3): 2.22E−07 Molar | GI50 (LoVo): 0.133 µM | TGI LOVO (LoVo): 2.48E−07 Molar | CC50 (LoVo): 0.463 µM | TGI HT-29 (HT-29): 2.68E−07 Molar | GI50 (HT-29): 0.148 µM | CC50 (HT-29): 0.485 µM | GI50 (LoVo-Dox): 0.159 µM | TGI LOVO-DOX (LoVo-Dox): 2.83E−07 Molar | CC50 (LoVo-Dox): 0.503 µM | GI50 (HeLa-APL): 0.379 µM | TGI HELA-APL (HeLa-APL): 1.04E−06 Molar | CC50 (HeLa-APL): 3.11 µM
